Source: the CheMixHub viscosity set

Assay: xn = mol fraction of the nth substance listed
Conditions: 101 kPa

CCCCCC(C)O (configuration not stated) + CN(C)C=O
viscosity [mPa·s]
Conditions	x2 = 0.1086	x2 = 0.153	x2 = 0.24	x2 = 0.3446	x2 = 0.4409	x2 = 0.5599	x2 = 0.6544	x2 = 0.7432	x2 = 0.8428	x2 = 0.9372
298.15 K	4.28	4	3.56	3.15	2.78	2.35	2.01	1.68	1.34	1.03
303.15 K	3.46	3.21	2.85	2.52	2.25	1.92	1.67	1.42	1.17	0.93
308.15 K	2.79	2.6	2.31	2.04	1.83	1.58	1.4	1.22	1.03	0.84
313.15 K	2.32	2.15	1.91	1.69	1.53	1.34	1.2	1.07	0.91	0.77

C=CCN=C=S + CN(C)c1ccccc1
303.15 K
Conditions	viscosity [mPa·s]
x1 = 0.2324	1.032
x1 = 0.4846	0.884
x1 = 0.7377	0.761

CCC(=O)c1ccccc1 + CN(C)c1ccccc1
viscosity [mPa·s]
Conditions	303.15 K	308.15 K
x2 = 0.0658	1.475	1.429
x2 = 0.1256	1.445	1.398
x2 = 0.1989	1.411	1.362
x2 = 0.2531	1.388	1.338
x2 = 0.3331	1.358	1.305
x2 = 0.4074	1.332	1.279
x2 = 0.4755	1.309	1.254
x2 = 0.5265	1.293	1.237
x2 = 0.6121	1.268	1.21
x2 = 0.6923	1.249	1.187
x2 = 0.7625	1.229	1.167
x2 = 0.8156	1.217	1.155
x2 = 0.8625	1.208	1.144

CC(C)NC(C)C + CNC(C)=O
308.15 K
Conditions	viscosity [mPa·s]
x2 = 0.0739	0.3617
x2 = 0.2151	0.5132
x2 = 0.3226	0.7392
x2 = 0.4754	1.069
x2 = 0.6497	1.625
x2 = 0.786	2.167
x2 = 0.8761	2.652
x2 = 0.9277	2.973
x2 = 0.9762	3.194

CCC(=O)c1ccccc1 + CNC(C)=O
308.15 K
Conditions	viscosity [mPa·s]
x1 = 0.06	2.972
x1 = 0.1269	2.778
x1 = 0.1862	2.61
x1 = 0.2778	2.38
x1 = 0.3654	2.19
x1 = 0.4649	2.005
x1 = 0.5709	1.828
x1 = 0.6929	1.648
x1 = 0.8315	1.485
